What was measured:
[1] = test system: B cells in human blood; test: Inhibition of B cell activation in whole blood measured by CD69 expression; format: cell-based; settings: CD69-positive, CD20-positive cells after anti-IgM stimulation, human whole blood, 20 hours, read-out: Human Whole Blood
In short: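 Heparinised human whole blood was preincubated with compound (nine-point, three-fold dilutions) for 30 min at 37 °C. It was then stimulated with 50 μg/ml goat F(ab′)2 anti-human IgM for 20 hours. CD20/CD69 staining, red-cell lysis and flow cytometry gave percent CD69-positive cells, from which IC50 values were calculated.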

SMILES | melting point [°C] | IC50 [1] [nM]
Cn1nc(-c2cccc(-n3ncc4cc(C(C)(C)C)cc(F)c4c3=O)c2CO)cc(Nc2cnc(CNC3CCC3)cn2)c1=O [I-35, 6-tert-Butyl-2-{3-[5-(5-cyclobutylaminomethyl-pyrazin-2-ylamino)-1-methyl-6-oxo-1,6-dihydro-pyridazin-3-yl]-2-hydroxymethyl-phenyl}-8-fluoro-2H-phthalazin-1-one] | 163 to 167 | 74
CN(C)CC(C)(C)Oc1cnc(Nc2cc(-c3cccc(-n4ncc5cc(C(C)(C)C)cc(F)c5c4=O)c3CO)nn(C)c2=O)cn1 [I-38, 6-tert-Butyl-2-(3-{5-[5-(2-dimethylamino-1,1-dimethyl-ethoxy)-pyrazin-2-ylamino]-1-methyl-6-oxo-1,6-dihydro-pyridazin-3-yl}-2-hydroxymethyl-phenyl)-8-fluoro-2H-phthalazin-1-one] | 235 to 240 | 12
CN(C)CC(C)(C)Oc1ccc(Nc2cc(-c3cccc(-n4ncc5cc(C(C)(C)C)cc(F)c5c4=O)c3CO)nn(C)c2=O)nn1 [I-39, 6-tert-Butyl-2-(3-{5-[6-(2-dimethylamino-1,1-dimethyl-ethoxy)-pyridazin-3-ylamino]-1-methyl-6-oxo-1,6-dihydro-pyridazin-3-yl}-2-hydroxymethyl-phenyl)-8-fluoro-2H-phthalazin-1-one] | 140 to 145 | 21
COCCNCc1ccc(Nc2cc(-c3cccc(-n4ncc5cc(C(C)(C)C)cc(F)c5c4=O)c3CO)nn(C)c2=O)nc1 [I-42, 6-tert-Butyl-8-fluoro-2-[2-hydroxymethyl-3-(5-{5-[(2-methoxy-ethylamino)-methyl]-pyridin-2-ylamino}-1-methyl-6-oxo-1,6-dihydro-pyridazin-3-yl)-phenyl]-2H-phthalazin-1-one] | 108 to 110 | 47
CN1CCn2nc(Nc3cc(-c4cccc(-n5ncc6cc(C(C)(C)C)cc(F)c6c5=O)c4CO)nn(C)c3=O)cc2C1 [I-59] | 188 to 193 | 5
Cn1nc(-c2cccc(-n3ncc4cc(C(C)(C)C)cc(F)c4c3=O)c2CO)cc(Nc2cc3n(n2)CCN(C2COC2)C3)c1=O [I-60] | 180 to 185 | 4
Cn1nc(-c2cccc(-n3ncc4cc(C(C)(C)C)cc(F)c4c3=O)c2CO)cc(Nc2ccn(C[C@@H](O)CO)n2)c1=O [I-68, 6-tert-Butyl-2-(3-{5-[1-((R)-2,3-dihydroxy-propyl)-1H-pyrazol-3-ylamino]-1-methyl-6-oxo-1,6-dihydro-pyridazin-3-yl}-2-hydroxymethyl-phenyl)-8-fluoro-2H-phthalazin-1-one] | 245 to 250 | 61
Cn1nc(-c2cccc(-n3ncc4cc(C(C)(C)C)cc(F)c4c3=O)c2CO)cc(Nc2ccn(CC(C)(C)O)n2)c1=O [I-70, 6-tert-Butyl-8-fluoro-2-(2-hydroxymethyl-3-{5-[1-(2-hydroxy-2-methyl-propyl)-1H-pyrazol-3-ylamino]-1-methyl-6-oxo-1,6-dihydro-pyridazin-3-yl}-phenyl)-2H-phthalazin-1-one] | 165 to 170 | 117

More lines, now with the values ahead:

melting point [°C] | IC50 [1] [nM] | SMILES
170 to 174 | 20 | CN(C)Cc1ccc(Nc2cc(-c3cccc(-n4ncc5cc(C(C)(C)C)cc(F)c5c4=O)c3CO)nn(C)c2=O)nc1 [I-8, 6-tert-Butyl-2-{3-[5-(5-dimethylaminomethyl-pyridin-2-ylamino)-1-methyl-6-oxo-1,6-dihydro-pyridazin-3-yl]-2-hydroxymethyl-phenyl}-8-fluoro-2H-phthalazin-1-one]
235 to 240 | 125 | CN1CCN(c2cnc(Nc3cc(-c4cccc(-n5ncc6cc(C(C)(C)C)cc(F)c6c5=O)c4CO)nn(C)c3=O)cn2)CC1 [I-34, 6-tert-Butyl-8-fluoro-2-{2-hydroxymethyl-3-[1-methyl-5-(4-methyl-3,4,5,6-tetrahydro-2H-[1,2′]bipyrazinyl-5′-ylamino)-6-oxo-1,6-dihydro-pyridazin-3-yl]-phenyl}-2H-phthalazin-1-one]
215 to 218 | 84 | CN1CCN(Cc2cnc(Nc3cc(-c4cccc(-n5ncc6cc(C(C)(C)C)cc(F)c6c5=O)c4CO)nn(C)c3=O)cn2)CC1 [I-37, 6-tert-Butyl-8-fluoro-2-(2-hydroxymethyl-3-{1-methyl-5-[5-(4-methyl-piperazin-1-ylmethyl)-pyrazin-2-ylamino]-6-oxo-1,6-dihydro-pyridazin-3-yl}-phenyl)-2H-phthalazin-1-one]
260 to 265 | 44 | CN1CCC(c2ccc(Nc3cc(-c4cccc(-n5ncc6cc(C(C)(C)C)cc(F)c6c5=O)c4CO)nn(C)c3=O)nn2)CC1 [I-40, 6-tert-Butyl-8-fluoro-2-(2-hydroxymethyl-3-{1-methyl-5-[6-(1-methyl-piperidin-4-yl)-pyridazin-3-ylamino]-6-oxo-1,6-dihydro-pyridazin-3-yl}-phenyl)-2H-phthalazin-1-one]
183 to 186 | 41 | CN1C[C@@H]2C[C@H]1CN2Cc1ccc(Nc2cc(-c3cccc(-n4ncc5cc(C(C)(C)C)cc(F)c5c4=O)c3CO)nn(C)c2=O)nc1 [I-43, 6-tert-Butyl-8-fluoro-2-(2-hydroxymethyl-3-{1-methyl-5-[5-((1S,4S)-5-methyl-2,5-diaza-bicyclo[2.2.1]hept-2-ylmethyl)-pyridin-2-ylamino]-6-oxo-1,6-dihydro-pyridazin-3-yl}-phenyl)-2H-phthalazin-1-one]
214 to 217 | 2 | Cn1nc(Nc2cc(-c3cccc(-n4ncc5cc(C(C)(C)C)cc(F)c5c4=O)c3CO)nn(C)c2=O)cc1CN1CCC1 [I-58]
245 to 247 | 18 | CCN1CCN(c2ccc(Nc3cc(-c4cccc(-n5ncc6cc(C(C)(C)C)cc(F)c6c5=O)c4CO)nn(C)c3=O)nc2)CC1 [I-69, 6-tert-Butyl-2-(3-{5-[5-(4-ethyl-piperazin-1-yl)-pyridin-2-ylamino]-1-methyl-6-oxo-1,6-dihydro-pyridazin-3-yl}-2-hydroxymethyl-phenyl)-8-fluoro-2H-phthalazin-1-one]
> 250 | 242 | Cn1nc(-c2cccc(-n3ncc4cc(C(C)(C)C)cc(F)c4c3=O)c2CO)cc(Nc2ccc(CN3C[C@@H]4C[C@H]3CN4)cn2)c1=O [I-84, 6-tert-Butyl-2-[3-(5-{5-[(1S,4S)-1-(2,5-diaza-bicyclo[2.2.1]hept-2-yl)methyl]-pyridin-2-ylamino}-1-methyl-6-oxo-1,6-dihydro-pyridazin-3-yl)-2-hydroxymethyl-phenyl]-8-fluoro-2H-phthalazin-1-one]

Reference: patent publication US8481540B2, “Inhibitors of bruton's tyrosine kinase” (Hoffmann-La Roche Inc., priority 2010, dated 2013)
